# Values joined by “and” are separate entries in the source; they are usually repeats but may differ in a detail not shown here. Identical values can stand only once. “Also recorded” adds a separate entry of the source. Like-named read-outs stand apart in the source and are kept apart here. Marks after values point to notes of the source that are not given here.
# Assays:
# [1] = tested on: rats; experiment: Loss of righting reflexes (LORR) assay in rats, ED50 by up and down method; format: in vivo, rat; conditions: tail vein; for ED50: Rattus norvegicus
# Method: The Anesthetic Activity of the Compounds was Assessed in Rats Using a Loss of Righting Reflexes (LORR) Assay
# (§1) Adult male Sprague-Dawley rats (250-300 g) were selected for the experiment. […] The anesthesia effects of the compounds were assessed in rats using a LORR assay and a period >30 s was considered as an indicator of general anesthesia. Then the up and down method was used to determine 50% effective dose (ED50). The drugs were administered through the tail vein of rats in a volume of 0.6 mL and at a rate of 0.1 mL/s.
# [2] = tested on: rats
# Method: as §1
# [3] = tested on: rats; experiment: Pharmacological characteristics at equivalent doses (2×ED50) in rats; conditions: 2×ED50, tail vein; for Adverse reactions: Tremor (incidence): animals affected/animals; for Onset time: time of LORR; for Adverse reactions: Red urine (incidence): DMSO solution (DMSO alone 10/10)
# Method: Comparison of Pharmacological Characteristics of the Compounds at Equivalent Doses (2×ED50) in Rats
# Adult male Sprague-Dawley rats (250-300 g) were selected for the experiment (n=8). […] The drugs were administered at a dose twice their ED50 through the tail vein of rats in a volume of 0.6 mL and at a rate of 0.1 mL/s. In addition, the time of LORR was recorded as the onset time of anesthesia. […] Furthermore, the duration of the pharmacological effects is sufficient to meet the time requirements for rapid induction of general anesthesia and for diagnostic examinations, some short invasive clinical examinations, or operations.
# [4] = tested on: secretion of corticosterone, H295R cell line; experiment: cells; format: cell-based; conditions: for EC50: read-out: EC50 (Corticosterone)
# Method: (§2) The Effects of the Compounds on Adrenocortical Function In Vitro Test
# (§3) Then secretion of the cortisol and corticosterone in the supernatant, was measured using HPLC-MS/MS method to determine whether the compounds of the present invention had adrenotoxic potential.
# [5] = tested on: secretion of cortisol, H295R cell line; experiment: cells; format: cell-based; conditions: for EC50: read-out: EC50 (Cortisol)
# Method: as §2, §3
# [6] = tested on: rats; format: in vivo, rat; conditions: for recovery time of the test animals' righting reflex: rats of the MAP/HR figures, 2×ED50, tail vein, same value in min
# Method: The Effects of the Compounds on the Circulatory Function were Measured in Rats Using a Small Animal Implanted Physiological Signal Telemetry System
# The anesthetic activity of the compounds was assessed in rats using a LORR assay and the up and down method was used to determine ED50. […] A small animal implantable physiological signal telemetry system from DSI (Data Science International, Inc.) was used to measure the changes in heart rate (HR) and blood pressure in rats during 30 min after administration. Then mean arterial pressure (MAP) and HR were used as representative indicators to determine hemodynamic stability of the compounds of the present invention in rats.
# A small animal implantable physiological signal telemetry system from DSI (Data Science International, Inc.) including implants (RATHD-521, DSI, United States), receiver boards (RPC-1, DSI, United States), signal conversion devices (DEM, DSI, USA), perfusion glue (DSI, USA), fibrin membrane (DSI, USA), etc.
# First, animal models were established. A left ventricular catheter, an abdominal aortic catheter and ECG wires were placed into rats. At least one week after surgery, data were recorded.
# Administration procedure: rats were put into a restraint device with a 20 G indwelling catheter placed into a lateral tail vein. After administration of 0.2 mL heparin, a pre-filled extension tube was attached and taped to the tail vein to secure the extension tube. Then the rats were removed from the restraint device to a cage before placing them together on the signal receiver. […] Finally, the pharmacological effects, adverse reactions, and behavioural manifestations of the rats were observed and recorded
# Data collection: After setting the data collection parameters on the software, the power of the implant was turned on to start data collection. In this experiment, data recording frequency was set to 15 s. Data collection was continuously recorded for 30 min before and after administration of the drugs in rats. After data acquisition, the test was stopped.
# [7] = tested on: rats; remark: listed apart in the source
# Method: Pharmacological Effects of the Compounds on Continuous Infusion in Rats
# Adult male Sprague-Dawley rats with body weight ranging from 250 to 300 gm were selected for continuous infusion test. […] Time to recovery of righting reflex from stopping infusion, and time to fully awake from stopping infusion were recorded.
# [8] = tested on: rats; format: in vivo, rat; conditions: rats of the MAP/HR figures, 2×ED50, tail vein
# [9] = H295R cell line, 0.1-10000 nM, HPLC-MS/MS, Table D3
# [10] = H295R cell line, 0.1-10000 nM, HPLC-MS/MS, Table E3
# [11] = H295R, 0.1-10000 nM, HPLC-MS/MS
# [12] = continuous tail vein infusion at 2×MIR, LORR maintained 1 hour, Table C4
# [13] = continuous tail vein infusion at 2×MIR, LORR maintained 1 hour, Table D4
# [14] = continuous tail vein infusion at 2×MIR, LORR maintained 1 hour, Table E4
# [15] = emulsion, continuous infusion at 2×MIR
structure (smiles),measurement,setting,value
"COC(=O)C1(OC(=O)c2cncn2[C@H](C)c2ccccc2)CC1 [CPMM, cyclopropyl methoxycarbonyl methylate, reference compound]",ED50 (mg/kg),[1]; brackets = 95% confidence limit,0.78 (0.74-0.82)* mg/kg
same,Approximate therapeutic index,[2],>10
same,Minimal lethal dose,[2],>7.8 mg/kg
same,Adverse reactions: Convulsions (incidence),[3],"Convulsions (4/10), Tremor and 4/10 and Convulsions (4/10), and (4/10),"
same,Adverse reactions: Myoclonus (incidence),[3],"(5/10), Myoclonus (5/10); also recorded: Myoclonus (5/10)"
same,Righting reflex duration,[3],1.62 ± 0.63 min
same,Adverse reactions: Tremor (incidence),[3],"(5/10), Myoclonus (5/10) and 5/10 and Tremor (5/10), and (5/10),"
same,Onset time,[3],0.26 ± 0.08 min
same,Corticosterone as an indicator to determine the presence of inhibition,[4]; [9],1
same,EC50,[4]; [9],> 100 nM
same,Corticosterone as an indicator to determine the presence of inhibition,[4]; [10],1
same,EC50,[4]; [10],> 100 nM
same,EC50,[4]; [11],> 100 nM
same,Corticosterone as an indicator to determine the presence of inhibition,"[4]; H295R, Table A3",1
same,Corticosterone as an indicator to determine the presence of inhibition,"[4]; H295R, Table B3",1
same,Corticosterone as an indicator to determine the presence of inhibition,"[4]; H295R, Table C3",1
same,Cortisol as an indicator to determine the presence of inhibition,[5]; [9],1
same,EC50,[5]; [9],> 10 nM
same,Cortisol as an indicator to determine the presence of inhibition,[5]; [10],1
same,EC50,[5]; [10],> 10 nM
same,EC50,[5]; [11],> 10 nM
same,Cortisol as an indicator to determine the presence of inhibition,"[5]; H295R, Table A3",1
same,Cortisol as an indicator to determine the presence of inhibition,"[5]; H295R, Table B3",1
same,Cortisol as an indicator to determine the presence of inhibition,"[5]; H295R, Table C3",1
same,"effect on the circulatory function (MAP, HR)","[6]; rats, 2×ED50, 30 min after administration",almost no inhibitory effect on the circulatory function
same,Recovery time after stopping infusion,[7]; after 1 hour infusion at 2×MIR,7 to 8 min
same,Adverse reactions: Convulsions (incidence),[7]; continuous infusion 2×MIR,3/6
same,Adverse reactions: Myoclonus (incidence),[7]; continuous infusion 2×MIR,Myoclonus (5/6)
same,Adverse reactions: Tremor (incidence),[7]; continuous infusion 2×MIR,5/6
same,Onset time,[7]; [12],3 to 4 min
same,Recovery time after stopping infusion,[7]; [12],7 to 8 min
same,Onset time,[7]; [13],3 to 4 min
same,Recovery time after stopping infusion,[7]; [13],7 to 8 min
same,Onset time,[7]; [14],3 to 4 min
same,Recovery time after stopping infusion,[7]; [14],7 to 8 min
same,Onset time,[7]; [15],3 to 4 min
C[C@H](c1ccccc1)n1cncc1C(=O)OCC1(C2CO2)CCC1 (stereo partly shown) [Compound A21],ED50,[1]; class symbols,0.1 to 0.5 mg/kg
same,Approximate therapeutic index,[2],>16
same,Minimal lethal dose,[2],>5 mg/kg
same,Righting reflex duration,[3],1.75 ± 0.26 min
same,Adverse reactions: Red urine (incidence),[3],Red urine (8/8)
same,Onset time,[3],0.27 ± 0.19 min
same,Corticosterone as an indicator to determine the presence of inhibition,"[4]; H295R, Table A3",0
same,EC50,"[4]; Homo sapiens, NCI-H295R",> 1000 nM
same,Cortisol as an indicator to determine the presence of inhibition,"[5]; H295R, Table A3",0
same,EC50,"[5]; Homo sapiens, NCI-H295R",> 1000 nM
same,Recovery time after stopping infusion,[7]; after 1 hour infusion at 2×MIR,15 to 25 min
same,Types and incidence of adverse reactions,"[7]; continuous infusion 2×MIR, in words",No
same,Onset time,[7]; [15],3 to 4 min
CC(=O)C1(OC(=O)c2cncn2[C@H](C)c2ccccc2)CC1 [Compound C1],ED50,[1]; class symbols,0.01 to 0.1 mg/kg
same,Approximate therapeutic index,[2],>90
same,Minimal lethal dose,[2],>20 mg/kg
same,Righting reflex duration,[3],1.9 ± 0.64 min
same,Adverse reactions: Red urine (incidence),[3],(8/8)
same,Adverse reactions: Tremor (incidence),[3],"Tremor (8/8), Red urine"
same,Onset time,[3],0.15 ± 0.09 min
same,recovery time of the test animals' righting reflex,[6],2.17 min
same,recovery time of the test animals' righting reflex,[8],130 s
C=CC1(OC(=O)c2cncn2[C@H](C)c2ccccc2)COC1 [Compound D7],ED50,[1]; class symbols,0.5 to 1 mg/kg
same,Approximate therapeutic index,[2],>10
same,Minimal lethal dose,[2],>6 mg/kg
same,Righting reflex duration,[3],3.20 ± 0.81 min
same,Adverse reactions: Red urine (incidence),[3],Red urine (8/8)
same,Onset time,[3],0.10 ± 0.01 min
same,recovery time of the test animals' righting reflex,[6],6.83 min
same,recovery time of the test animals' righting reflex,[8],410 s
C=C=CC1(OC(=O)c2cncn2[C@H](C)c2ccccc2)CSC1 [Compound D28],ED50,[1]; class symbols,0.01 to 0.1 mg/kg
same,Approximate therapeutic index,[2],>16
same,Minimal lethal dose,[2],>10 mg/kg
same,Righting reflex duration,[3],5.09 ± 1.89 min
same,Adverse reactions: Red urine (incidence),[3],Red urine (8/8)
same,Onset time,[3],0.25 ± 0.06 min
same,Corticosterone as an indicator to determine the presence of inhibition,[4]; [9],0
same,EC50,"[4]; Homo sapiens, NCI-H295R",> 10000 nM
same,Cortisol as an indicator to determine the presence of inhibition,[5]; [9],0
same,EC50,"[5]; Homo sapiens, NCI-H295R",> 10000 nM
same,Onset time,[7]; [13],3 to 4 min
same,Recovery time after stopping infusion,[7]; [13],13 to 16 min
same,Types and incidence of adverse reactions,[7]; [13],Tremor (2/6)
C=C=CC1(OC(=O)c2cncn2[C@H](C)c2ccccc2)CCOCC1 [Compound D34],ED50,[1]; class symbols,0.5 to 1 mg/kg
same,Approximate therapeutic index,[2],>13
same,Minimal lethal dose,[2],>8 mg/kg
same,Righting reflex duration,[3],4.50 ± 0.86 min
same,Adverse reactions: Red urine (incidence),[3],Red urine (8/8)
same,Onset time,[3],0.11 ± 0.04 min
same,recovery time of the test animals' righting reflex,[6],2.83 min
same,recovery time of the test animals' righting reflex,[8],170 s
C[C@H](c1ccccc1)n1cnc(F)c1C(=O)OC1CCC1 [Compound E9],ED50 (mg/kg),[1]; class symbols,"B (B means that the measured ED50 is in the range of 0.10-0.50 mg/kg (excluding 0.10 mg/kg, including 0.50 mg/kg).)"
same,Approximate therapeutic index,[2],>48
same,Minimal lethal dose,[2],>6 mg/kg
same,Righting reflex duration,[3],1.24 ± 0.79 min
same,Sedation duration (mg/kg),[3],9.29 ± 2.07
same,Adverse reactions: Red urine (incidence),[3],(8/8)
same,Onset time,[3],0.42 ± 0.20 min
same,recovery time of the test animals' righting reflex,[6],1.28 min
same,recovery time of the test animals' righting reflex,[8],77 s
C[C@H](c1ccccc1)n1cnc(F)c1C(=O)OC1COC1 [Compound E10],ED50,[1]; class symbols,0.5 to 1 mg/kg
same,Approximate therapeutic index,[2],>14
same,Minimal lethal dose,[2],>10 mg/kg
same,Righting reflex duration,[3],2.59 ± 0.85 min
same,Adverse reactions: Red urine (incidence),[3],(8/8)
same,Onset time,[3],0.21 ± 0.05 min
same,recovery time of the test animals' righting reflex,[6],2.70 min
same,recovery time of the test animals' righting reflex,[8],162 s
C[C@H](c1ccccc1)n1cnc(F)c1C(=O)OC1CSC1 [Compound E11],ED50,[1]; class symbols,0.01 to 0.1 mg/kg
same,Approximate therapeutic index,[2],>60
same,Minimal lethal dose,[2],>4 mg/kg
same,Righting reflex duration,[3],1.52 ± 0.53 min
same,Adverse reactions: Red urine (incidence),[3],(8/8)
same,Onset time,[3],0.57 ± 0.25 min
same,recovery time of the test animals' righting reflex,[6],1.55 min
same,recovery time of the test animals' righting reflex,[8],93 s
CC#CC1(OC(=O)c2c(F)ncn2[C@H](C)c2ccccc2)COC1 [Compound E15],ED50,[1]; class symbols,0.1 to 0.5 mg/kg
same,Approximate therapeutic index,[2],>32
same,Minimal lethal dose,[2],>5 mg/kg
same,Righting reflex duration,[3],1.10 ± 0.89 min
same,Adverse reactions: Red urine (incidence),[3],urine (8/8)
same,Adverse reactions: Tremor (incidence),[3],"(2/8), Red"
same,Onset time,[3],0.42 ± 0.13 min
same,recovery time of the test animals' righting reflex,[6],1.20 min
same,recovery time of the test animals' righting reflex,[8],72 s

# — patent US11434205B2, “Substituted imidazole carboxylate derivatives and the use thereof” (priority 2018, dated 2022)
